Earlier results in publication PMC10329699, “Pharmacokinetics, biodistribution and toxicology of novel cell-penetrating peptides” (Scientific Reports, 2023).
Like-named read-outs stand apart in the source and are kept apart here. One block for each compound: values may come before it.

Key:
[1] = literature values for comparison
Description: Considering their smaller size (up to 30 amino acids in length), cationic and/or amphipathic CPPs have a greater potential to penetrate the BBB than other transport systems. […] For the sake of comparison, a control IgG, an IgG binding ...

Clup (brain uptake coefficient), comparison values [1]: ≈ 1 µl g^−1 s^−1
Compound: OC[C@H]1OC(O)[C@H](O)[C@@H](O)[C@@H]1O (stereo partly drawn) [glucose]

Compound: TAT
half-life (stability in human serum) (in vitro at 37 °C in human serum): 8.8 h

half-life (stability in human serum) (human): 1.2 h
Compound: penetratin
